PMC8879095, “UHPLC-MS/MS Analysis of Antibiotics Transfer and Concentrations in Porcine Oral Fluid after Intramuscular Application” (Pharmaceuticals, 2022)
Like-named read-outs stand apart in the source and are kept apart here.

Columns and labels:
[1] = Antibiotic concentrations in porcine oral fluid after intramuscular application (UHPLC-MS/MS); type: in vivo; settings: pigs, i.m.; for concentration in oral fluid at withdrawal period: at the end of the withdrawal period for tissues of each drug (Table 3); for time for which the analyte was present / quantified in oral fluid: sampling for 30 days
Experimental: All animals were born in the sow farm (8000 DanBred sows) located in Northern Poland, after crossing ♀(♂Landrace × ♀Yorskshire) × ♂Duroc. Piglets were weaned after 4 weeks of lactation with an average weight of 6 kg and then moved to the weaner stable (23,000 weaners). After the next 7 weeks, animals were transported to the 9000-places fattening farm with an average body weight of 28 kg, where the trial was performed. All farms in the aforementioned three-phase model used weekly batches and an all-in all-out system. Specialist veterinary and production management care were provided in each location.
For the purpose of the study, 240 immunologically castrated boars were divided into 8 groups, 30 animals in each pen. For the control group, 30 pigs were used in separate pens. Their initial body weight was between 40 and 60 kg. Pigs were housed at 20–25 °C. Fatteners were fed ad libitum with antimicrobial-free water and feed provided by feeders throughout the study. Before the experiment, water and feed were checked for antimicrobials, and no antimicrobial treatments were administered to these pigs before. All animals in one pen were treated due to the same health issue using disposable needles and the same drug and dosage. Pens were separated from each other with concrete walls. The drugs and dosage administered to each experimental group with an indication of withdrawal period for tissues are listed in Table 3. The oral fluid samples were collected using three cotton ropes (70 cm length with 1 cm diameter) in each pen suspended separately for 25 min on the front wall of the pen with bottoms at the pigs’ shoulder height, away from water and feed.
The research material was one pooled sample of oral fluid from 10 pigs, in triplicate, per pen. Ropes were removed immediately after collection. The first oral fluid sample was collected 24 h after the first injection. The collection of each subsequent sample took place at the same time (11:30 A.M.) for 35 consecutive days. Additionally, oral fluid samples were collected from pigs not treated with any antibiotics. Oral fluid from each pen was pooled into one 50-mL Falcon plastic tube and centrifuged at 9447× rcf for 15 min. Centrifuged material was transferred to a 15 mL plastic tube and frozen at −20 °C until analysis.
Before the analysis, the oral fluid samples were centrifuged at 9447× rcf. Next, an aliquot (1 mL) of oral fluid was placed into a 2 mL polypropylene centrifuge tube, and the 30 µL of the internal standard at the concentration of 2 µg/mL was added. For the extraction of analysed antibiotics, 600 µL of 0.5% formic acid was added, vortexed for 30 s and centrifuged for 10 min at 9447× rcf. Then, the supernatant was filtered through a […] PVDF filter into an amber glass vial before chromatographic analysis.
The mass spectrometry detection was operated in the positive ESI mode with multiple reaction monitoring (MRM).

[2] = set-up: method as in PMID 14651045, PMID 14651045; settings: cited from earlier work
[3] = organic acid; cited from earlier work
[4] = set-up: method as in PMID 28042939; settings: 21st day, i.m., cited from earlier work
[5] = male, (Landrace × Yorkshire) × Duroc crossbred (DanBred sows), pig, intramuscular, oral fluid, time 1 d (24 h after first injection), treatment period, read-out: Avarage Concentrations in oral fluid
[6] = male, (Landrace × Yorkshire) × Duroc crossbred (DanBred sows), pig, intramuscular, oral fluid, treatment period, read-out: Avarage Concentrations in oral fluid
[7] = male, (Landrace × Yorkshire) × Duroc crossbred (DanBred sows), pig, intramuscular, oral fluid, posttreatment, read-out: Avarage Concentrations in oral fluid
[8] = oral fluid, time 1 d (24 h after first injection), treatment period
[9] = oral fluid, time 9 d, posttreatment
[10] = oral fluid, time 10 d, posttreatment
[11] = oral fluid, time 11 d, posttreatment
[12] = oral fluid, time 12 d, posttreatment
[13] = oral fluid, time 13 d, posttreatment
[14] = oral fluid, time 14 d, posttreatment
[15] = oral fluid, time 15 d, posttreatment
[16] = oral fluid, time 16 d, posttreatment
[17] = oral fluid, time 17 d, posttreatment
[18] = oral fluid, time 18 d, posttreatment
[19] = oral fluid, time 19 d, posttreatment
[20] = oral fluid, time 20 d, posttreatment
[21] = oral fluid, time 21 d, posttreatment
[22] = oral fluid, time 22 d, posttreatment
[23] = oral fluid, time 23 d, posttreatment
[24] = oral fluid, time 24 d, posttreatment
[25] = oral fluid, time 25 d, posttreatment
[26] = oral fluid, time 26 d, posttreatment
[27] = oral fluid, time 27 d, posttreatment
[28] = oral fluid, time 28 d, posttreatment
[29] = oral fluid, time 29 d, posttreatment
[30] = oral fluid, time 30 d, posttreatment

| concentration at 1 d [1, 5] | concentration at 2 d [1, 6] | concentration at 3 d [1, 6] | concentration at 4 d [1, 7] | concentration at 5 d [1, 7] | concentration in oral fluid at withdrawal period ([1]; oral fluid) | time for which the analyte was present / quantified in oral fluid ([1]; oral fluid) | Avarage Concentrations in oral fluid [1, 8] | Avarage Concentrations in oral fluid [1, 9] | Avarage Concentrations in oral fluid [1, 10] | Avarage Concentrations in oral fluid [1, 11] | Avarage Concentrations in oral fluid [1, 12] | Avarage Concentrations in oral fluid [1, 13] | Avarage Concentrations in oral fluid [1, 14] | Avarage Concentrations in oral fluid [1, 15] | Avarage Concentrations in oral fluid [1, 16] | Avarage Concentrations in oral fluid [1, 17] | Avarage Concentrations in oral fluid [1, 18] | Avarage Concentrations in oral fluid [1, 19] | Avarage Concentrations in oral fluid [1, 20] | SMILES | also measured |
| --- | --- | --- | --- | --- | --- | --- | --- | --- | --- | --- | --- | --- | --- | --- | --- | --- | --- | --- | --- | --- | --- |
| 11.3 ng/mL | 15.2 ± 2.3 ng/mL | 14.6 ± 1.8 ng/mL | 11.4 ± 1.4 ng/mL | 11.2 ± 1.6 ng/mL | below the limit of quantification | 5 days | 11.3 ± 1.6 µg/L | <LOQ | <LOQ | <LOQ * | <LOQ | <LOQ | <LOQ | <LOQ | <LOQ | <LOQ | <LOQ | <LOQ | <LOQ | CC1(C)S[C@@H]2[C@H](NC(=O)[C@H](N)c3ccc(O)cc3)C(=O)N2[C@H]1C(=O)O [AMX, amoxicillin] | Avarage Concentrations in oral fluid ([1]; oral fluid, time 6 d, posttreatment): <LOQ; Avarage Concentrations in oral fluid ([1]; oral fluid, time 7 d, posttreatment): <LOQ; Avarage Concentrations in oral fluid ([1]; oral fluid, time 8 d, posttreatment): <LOQ; Avarage Concentrations in oral fluid [1, 21]: <LOQ; Avarage Concentrations in oral fluid [1, 22]: <LOQ; Avarage Concentrations in oral fluid [1, 23]: <LOQ; Avarage Concentrations in oral fluid [1, 24]: <LOQ; Avarage Concentrations in oral fluid [1, 25]: <LOQ; Avarage Concentrations in oral fluid [1, 26]: <LOQ; Avarage Concentrations in oral fluid [1, 27]: <LOQ; Avarage Concentrations in oral fluid [1, 28]: <LOQ; Avarage Concentrations in oral fluid [1, 29]: <LOQ; Avarage Concentrations in oral fluid [1, 30]: <LOQ; distribution to oral fluid ([1]; conclusion in words): low penetration; binding degree to plasma proteins [2]: ≈ 25% |
| 93 ng/mL | 50 ± 15 ng/mL | 11 ± 4.6 ng/mL | 16 ± 5.4 ng/mL | 5.2 ± 1.1 ng/mL | below the limit of quantification | 8 days | 93 ± 21 µg/L | <LOQ * | <LOQ | <LOQ | <LOQ | <LOQ | <LOQ | <LOQ | <LOQ | <LOQ | <LOQ | <LOQ | <LOQ | CC1(C)S[C@@H]2[C@H](NC(=O)Cc3ccccc3)C(=O)N2[C@H]1C(=O)O [PEN G, penicillin G] | concentration at 6 d ([1]; male, (Landrace × Yorkshire) × Duroc crossbred (DanBred sows), pig, intramuscular, oral fluid, time 6 d, posttreatment, read-out: Avarage Concentrations in oral fluid): 52 ± 13 ng/mL; concentration at 7 d ([1]; male, (Landrace × Yorkshire) × Duroc crossbred (DanBred sows), pig, intramuscular, oral fluid, time 7 d, posttreatment, read-out: Avarage Concentrations in oral fluid): 32 ± 7.2 ng/mL; concentration at 8 d ([1]; male, (Landrace × Yorkshire) × Duroc crossbred (DanBred sows), pig, intramuscular, oral fluid, time 8 d, posttreatment, read-out: Avarage Concentrations in oral fluid): 6 ± 1.2 ng/mL; Avarage Concentrations in oral fluid [1, 21]: <LOQ; Avarage Concentrations in oral fluid [1, 22]: <LOQ; Avarage Concentrations in oral fluid [1, 23]: <LOQ; Avarage Concentrations in oral fluid [1, 24]: <LOQ; Avarage Concentrations in oral fluid [1, 25]: <LOQ; Avarage Concentrations in oral fluid [1, 26]: <LOQ; Avarage Concentrations in oral fluid [1, 27]: <LOQ; Avarage Concentrations in oral fluid [1, 28]: <LOQ; Avarage Concentrations in oral fluid [1, 29]: <LOQ; Avarage Concentrations in oral fluid [1, 30]: <LOQ; pKa [3]: 2.7 |
| – | – | – | – | – | – | – | – | – | – | – | – | – | – | – | – | – | – | – | – | CN(C)[C@@H]1C(O)=C(C(N)=O)C(=O)[C@@]2(O)C(O)=C3C(=O)c4c(O)cccc4[C@@](C)(O)[C@H]3[C@H](O)[C@@H]12 [oxytetracycline] | concentration in oral fluid at the withdrawal period ([4]; group where all pigs were treated): 30.8 µg/kg; concentration in oral fluid at the withdrawal period ([4]; group where the antibiotic was administered to half of the animals in one pen): 11.6 µg/kg |
